# Patent US20040110718A1, “Anti-HCV nucleoside derivatives” (priority 2000, published 2004)
# pIC50: −log10 of the molar value.
# Tests used:
# [1] = tested on: HCV replicon RNA replication; test: HCV replicon assay (quantification of replicon RNA, Northern blot / Taqman kinetic PCR); assay type: cell-based; settings: Hepatitis C virus, Huh-7, 72 h
# Description: Assay Method: The activity of the compounds was assayed using an adaptation of the method reported by Lohmann et al [V. Lohmann et al., Science, 1999, 285, 110-113].
# The HCV replicon-containing cell line is used for the identification of small molecules that are able to inhibit the replication of the replicon RNA. Since the replicon RNA replication mimics the replication of the HCV RNA in infected hepatocytes, it is believed that those small molecules that have the above property are interesting for further development as anti-HCV drugs.
# The inhibition of the HCV replicon RNA replication will lead to a decrease of the replicon RNA in the cell, which can be measured using a method that specifically quantifies this RNA.
# Northern blot: One method for quantification of this RNA uses the standard Northern blot known to any person skilled in the art.
# Kinetic PCR: A second assay for the quantification of replicon RNA is based on the amplification of the replicon RNA that remains in the cell, after incubation of the cells with a proper concentration of the small molecules. This method involves the reverse transcription of the replicon RNA to the corresponding complementary DNA (cDNA), followed by amplification of the cDNA using the Taqman Kinetic PCR technology (PE Biosystems). This consists of hybridisation of the cDNA with a complementary reporter oligonucleotide (probe), containing a combined fluorescent dye and a quencher dye. Amplification of the DNA sequence containing the hybridised reporter probe, using flanking oligonucleotide primers will lead to the separation of the fluorescent dye from the quencher dye. This will result in an increase of the fluorescence during each amplification cycle.
# The neomycin phosphotransferase gene sequence that is present in the replicon RNA was chosen for amplification using specifically designed oligonucleotide primers. To control for (a) cell number that can vary depending on the toxicity or cytostatic effect of the small molecules, and (b) for errors during total RNA extraction, amplification of the host β-actin gene is used for normalisation.
# The accumulation of the PCR products during the reaction is monitored directly by measuring the increase in fluorescence of the reporter dye. The amount of HCV replicon RNA (and β-actin RNA) originally present in the total RNA extracted from the cells is then expressed as a threshold cycle, e.g. the cycle at which there is a statistically significant increase in the fluorescence above the background.
# For this procedure, HCV replicon-containing human hepatoma Huh7 cells (9-13) in growth medium (DMEM) containing 5% FCS are plated in a 96-well plate at 5×10^3 cells per well, and the plate incubated overnight. 24 hours later, different dilutions in 0.1 ml growth medium of chemical compounds were added to the wells, and the plate further incubated at 37° C. for three days. Total RNA coming from each well is extracted using the RNeasy™ procedure (Qiagen manufacturer instructions), and the total RNA is eluted in a final volume of 0.13 ml. Next, a 2 μl sample of the total RNA is used for convertion into cDNA using a reverse transcription (RT) step. A RT mastermix containing 1 μl 10× Taqman RT buffer, 2.2 μl 25 mM MgCl2 (5.5 mM final conc.), 2 μl dNTP mix (500 μM each), 0.5 μl random hexamer primers (2.5 μM), 0.2 μl RNase inhibitor (0.4 u/μl ), 0.25 μl RT (1.25 u/μl ), 1.85 μl H2O, was distributed in a 96-well plate and 2 μl total RNA was added to each well.
# The RT reaction is performed by incubation of the plate 10 min at 25° C., 30 min at 48° C., 5 min at 95° C. and cooling to 4° C. The cDNA samples are then stored at −20° C. or directly used for the PCR reaction. […]
# [2] = tested on: HCV replicon RNA replication; test: HCV replicon assay, Renilla luciferase reporter; assay type: cell-based; settings: Hepatitis C virus, Huh-7, 72 h; Renilla luciferase HCV replicon cells (2209-23, Huh7), three days incubation; concentration reducing luciferase activity/replicon level by 50%
# [3] = HCV replicon-containing human hepatoma Huh7 cells (9-13), three days incubation, concentration reducing replicon RNA levels by 50%, read-out: IC50
Structure (SMILES),pIC50 [2],other results
"OC[C@H]1O[C@@H](n2cnc3c(-c4ccsc4)ncnc32)[C@H](O)[C@@H]1O [Example 181, 9-(β-D-Ribofuranosyl)-6-(3-thienyl)purine]",–,pIC50 [1]: 7.30; melting point: 166 to 167 °C (dec.)
"OC[C@H]1O[C@@H](n2cnc3c(-c4ccccc4)ncnc32)[C@H](O)[C@@H]1O [Example 182, 6-Phenyl-9-(β-D-ribofuranosyl)purine]",–,"pIC50 [1, 3]: 7.00; melting point: 224 to 225 °C"
"Nc1ccn([C@@H]2C[C@H](CO)[C@@H](O)C2(F)F)c(=O)n1 [Example 245, 1-[1(R)-2,2-difluoro-3(R)-hydroxy-4(R)-(hydroxymethyl)cyclopentyl]-4-amino-1H-pyrimindin-2-one]",–,"pIC50 [1, 3]: 5.70"
"Nc1ccn([C@@H]2C[C@H](CO)[C@@H](O)[C@H]2O)c(=O)n1 [Example 246, 4-amino-1(R)-(2(S),3(R)-dihydroxy-4(R)-hydroxymethyl-cyclopentyl)-1H-pyrimidin-2-one]",6.40,–
"Nc1ccn([C@@H]2O[C@H](CO)[C@H](O)[C@H]2O)c(=O)n1 [Example 247, 1-(β-D-xylofuranosyl)cytosine]",5.43,–
"Nc1ccn([C@@H]2O[C@H](CO)[C@H](F)[C@H]2O)c(=O)n1 [Example 249, 1-(3-deoxy-3-fluoro-β-D-xylofuranosyl)cytosine]",4.98,–
"CCNc1ncnc2c1ncn2[C@@H]1O[C@H](CO)[C@@H](O)[C@H]1O [Example 252, 6-ethylamino-9-(β-D-ribofuranosyl)purine]",4.85,–
"CCCNc1ncnc2c1ncn2[C@@H]1O[C@H](CO)[C@@H](O)[C@H]1O [Example 253, 6-propylamino-9-(β-D-ribofuranosyl)purine]",5.15,–
